Results from publication PMC11187126, “Structure and dynamics of the pyroglutamylated RF-amide peptide QRFP receptor GPR103” (Nature Communications, 2024).
Read-outs that look alike come from different tables or passages of the source. No end group written: not given here.

Target: T1, GPR103 Y194^ECL2A (Homo sapiens, UniProt Q96P65, Y194A)
T1 construct: we used human full-length QRFPR-encoding plasmids; expressed in transfected cells; host or cells: HEK293 cells, pCAGGS vector
T1 sequence (Q96P65 1-431 Y194A): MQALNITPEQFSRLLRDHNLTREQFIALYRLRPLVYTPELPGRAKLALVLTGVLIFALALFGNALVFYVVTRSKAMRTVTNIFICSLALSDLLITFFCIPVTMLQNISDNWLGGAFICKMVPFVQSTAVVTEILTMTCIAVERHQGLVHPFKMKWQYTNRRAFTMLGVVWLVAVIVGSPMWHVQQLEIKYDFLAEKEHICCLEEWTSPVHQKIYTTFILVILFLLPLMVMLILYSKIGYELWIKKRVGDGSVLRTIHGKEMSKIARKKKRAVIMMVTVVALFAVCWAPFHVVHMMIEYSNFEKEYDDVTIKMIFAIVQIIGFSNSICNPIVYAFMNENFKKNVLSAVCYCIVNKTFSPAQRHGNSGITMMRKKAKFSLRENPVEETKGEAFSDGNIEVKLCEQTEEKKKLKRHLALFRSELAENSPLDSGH
Experiment: TGFα shedding assay; Exp. level WT (1:10)
Assay type: cell-based
Protocol: For the TGFα shedding assay and the flow cytometry analysis, we used human full-length QRFPR-encoding plasmids. Specifically, GPR103 was N-terminally modified with an HA signal sequence followed by a FLAG epitope and then a flexible linker ([…]; the FLAG epitope is underlined) and inserted into the pCAGGS vector. Plasmid encoding GPR103 mutants were generated using Quickchange Site-Directed Mutagensis kit (Agilent).
The TGFα shedding assay was performed as described previously with minor modifications. Plasmid transfection was performed in a 6-well plate with a mixture of 500 ng (per well in a 6-well plate) AP-TGFα-encoding plasmid and 200 ng GPR103-encoding plasmid. After 1-day culture, the transfected cells were harvested by trypsinization, pelleted by centrifugation at 190 × g for 5 min, and washed once with 5 mM HEPES (pH 7.4)-containing Hank’s Balanced Salt Solution (HBSS). After centrifugation, the cells were resuspended in 8 mL of the HEPES-containing HBSS. The cell suspension was seeded in a 96-well culture plate (cell plate) at a volume of 90 μL (per well hereafter) and incubated in a 37 °C incubator with 5% CO2 for 30 min. […] After spinning the cell plates at 190 × g for 2 min, 80 μL of conditioned media was transferred to an empty 96-well plate (conditioned media (CM) plate). Then, 80 μL of AP reaction solution (10 mM p-nitrophenylphosphate (p-NPP), 120 mM Tris-HCl (pH 9.5), 40 mM NaCl, and 10 mM MgCl2) was dispensed into the cell plates and the CM plates. Absorbance at 405 nm of the plates was measured using a microplate reader (SpectraMax 340 PC384, Molecular Devices) before and after 1-h incubation at room temperature. Ligand-induced AP-TGFα release was calculated by subtracting spontaneous AP-TGFα release signal from ligand-induced AP-TGFα release signal. The AP-TGFα release signals were fitted to a four-parameter sigmoidal concentration–response curve, using the Prism 10 software (GraphPad Prism). For each replicate experiment, the pEC50 parameter (negative logarithmic values of EC50 values) of the individual GPR103 mutants were normalized to that of the wild-type GPR103 performed in parallel, and resulting ∆pEC50 values were used to denote ligand response activity of the mutants. […]
Exp. le vel: WT (1:5 0)Exp. le vel: WT (1:5 0)Exp. le vel: WT (1:5 0)Exp. le vel: WT (1:2 0)Exp. le vel: WT (1:2 0)Exp. le vel: WT (1:1 0) […]
L1 4N - t e r mA F2 5N - t e r mA I 2 6N - t e r mA Y 2 9N - t e r mA C 9 82 .5 7A T10 22 .6 1A Exp . l eve l: WT (1 :5)Exp . l evel : >WT (1 :1)Exp. le vel: WT (1:2 0)Exp. le vel: WT (1:2 0)Exp. le vel: WT (1:5 0)Exp . l eve l: WT (1 :1) […]
Exp. le vel: WT (1:1 0)Exp. le vel: WT (1:2 0) C 1 1 83 .2 5AExp. le vel: WT (1:5 0)Exp. le vel: WT (1:5 0)Exp. le vel: WT (1:2 0)Exp . l eve l: WT (1 :5) […]
Exp. le vel: WT (1:5 0)Exp. le vel: WT (1:1 0)Exp. le vel: WT (1:5 0) E203ECL2AExp . l evel : >WT (1 :1)Exp. le vel: WT (1:5 0)Exp. le vel: WT (1:5 0) […]
Exp . l eve l: WT (1 :1) F28Exp. le vel: WT (1:5 0) C 2 8 56 .4 7AExp. le vel: WT (1:2 0) WExp. le vel: WT (1:2 0) F28Exp. le vel: WT (1:5 0)Exp . l evel : >WT (1 :1) […]
Exp. le vel: WT (1:5 0)Exp. le vel: WT (1:5 0) C 3 2 77 .4 8AExp . l eve l: WT (1 :5)Exp . l evel : >WT (1 :1)Exp . l evel : >WT (1 :1) […]
Suppl eme nt ary Figure 1 | Mutational analysis of GPR103. […]
mutants. Data are presented as mean values ± SEM, normally n=3-5; dots), each performed in triplicate. b-d Cell-surface expression (b) and QRFP26-in-duced activation of GPR103 (c, d) were analyzed by the flow cytometry and the TGFα shedding assay, respectively. From the concentration–response curves (a), Emax (c) and ΔpEC50 (d) values relative to the wild type were calculated. Colors in the mutant bars indicate an expression level matching to that of titrated wild type. Statistical analyses were performed using the ordinary one-way ANOVA followed by Dunnett tests with the expression-matched […]

- Emax (Exp. #1): 91.33 % WT
- Emax (Exp. #2): 94.38 % WT
- Emax (Exp. #3): 115.19 % WT
- Emax (mean, read-out: Emax): 100%
- EC50 (n = 3): 93.3 nM
- Emax (n = 3, read-out: Emax): 102 ± 6.1%
Substance: TSGPLGNLAEELNGYSRKKGGFSFRF-NH2 [QRFP26]
